Results as given in patent publication US8110571B2, “Benzimidazole and benzothiazole derivatives, method for preparing same, use thereof as drugs, pharmaceutical compositions and novel use especially as c-MET inhibitors” (Aventis Pharma S.A., priority 2005, dated 2012).
Structures can show the parent of a compound that is named as a salt.

melting point [°C] | Compound
114 | O=C(CCCC1CCNCC1)Nc1nc2ccc(OS(=O)(=O)c3c(Cl)cccc3Cl)cc2s1 (as salt: benzenesulfonate) [Example 48, 2-[(4-Piperidin-4-ylbutanoyl)amino]-1,3-benzothiazol-6-yl 2,6-dichlorobenzenesulfonate]
94 | O=C(NCCCN1CCOCC1)Nc1nc2ccc(OS(=O)(=O)c3c(Cl)cccc3Cl)cc2s1 (as salt: benzenesulfonate) [Example 53, 2-{[(3-morpholin-4-ylpropyl)carbamoyl]amino}-1,3-benzothiazol-6-yl 2,6-dichlorobenzenesulfonate]
68 | CN(CCCNC(=O)Nc1nc2ccc(OS(=O)(=O)c3c(Cl)cccc3Cl)cc2s1)c1ccccc1 (as salt: benzenesulfonate) [Example 54, 2-[({3-[methyl(phenyl)amino]propyl}carbamoyl)amino]-1,3-benzothiazol-6-yl 2,6-dichlorobenzenesulfonate]
95 | O=C(NCCN1CCC(Cc2ccccc2)CC1)Nc1nc2ccc(OS(=O)(=O)c3c(Cl)cccc3Cl)cc2s1 (as salt: benzenesulfonate) [Example 55, 2-({[2-(4-benzylpiperidin-1-yl)ethyl]carbamoyl}amino)-1,3-benzothiazol-6-yl 2,6-dichlorobenzenesulfonate]
99 | O=C(NCCN1CCCC1)Nc1nc2ccc(OS(=O)(=O)c3c(Cl)cccc3Cl)cc2s1 (as salt: benzenesulfonate) [Example 56, 2-{[(2-pyrrolidin-1-ylethyl)carbamoyl]amino}-1,3-benzothiazol-6-yl 2,6-dichlorobenzenesulfonate]
204 | O=C(Nc1nc2ccc(OS(=O)(=O)c3c(Cl)cccc3Cl)cc2s1)N1CCC[C@@H]1CN1CCCC1 (as salt: benzenesulfonate) [Example 57, 2-({[(2R)-2-(pyrrolidin-1-ylmethyl)pyrrolidin-1-yl]carbonyl}amino)-1,3-benzothiazol-6-yl 2,6-dichlorobenzenesulfonate]
210 | O=C(Nc1nc2ccc(OS(=O)(=O)c3c(Cl)cccc3Cl)cc2s1)N1CCC[C@H]1CN1CCCC1 (as salt: benzenesulfonate) [Example 58, 2-({[(2S)-2-(pyrrolidin-1-ylmethyl)pyrrolidin-1-yl]carbonyl}amino)-1,3-benzothiazol-6-yl 2,6-dichlorobenzenesulfonate]
96 | O=C(NCCCN1CCCC1)Nc1nc2ccc(OS(=O)(=O)c3c(Cl)cccc3Cl)cc2s1 (as salt: benzenesulfonate) [Example 59, 2-{[(3-pyrrolidin-1-ylpropyl)carbamoyl]amino}-1,3-benzothiazol-6-yl 2,6-dichlorobenzenesulfonate]
100 | CN1CCN(CCNC(=O)Nc2nc3ccc(OS(=O)(=O)c4c(Cl)cccc4Cl)cc3s2)CC1 (as salt: benzenesulfonate) [Example 60, 2-({[2-(4-methylpiperazin-1-yl)ethyl]carbamoyl}amino)-1,3-benzothiazol-6-yl 2,6-dichlorobenzenesulfonate]
178 | CN1CCCC1CCNC(=O)Nc1nc2ccc(OS(=O)(=O)c3c(Cl)cccc3Cl)cc2s1 (stereo not drawn) (as salt: benzenesulfonate) [Example 61, 2-({[2-(1-methylpyrrolidin-2-yl)ethyl]carbamoyl}amino)-1,3-benzothiazol-6-yl 2,6-dichlorobenzenesulfonate]
100 | CN(C)CCCNC(=O)Nc1nc2ccc(OS(=O)(=O)c3c(Cl)cccc3Cl)cc2s1 (as salt: benzenesulfonate) [Example 62, 2-({[3-(dimethylamino)propyl]carbamoyl}amino)-1,3-benzothiazol-6-yl 2,6-dichlorobenzenesulfonate]
122 | CC1CCCC(C)N1CCNC(=O)Nc1nc2ccc(OS(=O)(=O)c3c(Cl)cccc3Cl)cc2s1 (stereo not drawn) (as salt: benzenesulfonate) [Example 63, 2-({[2-(2,6-dimethylpiperidin-1-yl)ethyl]carbamoyl}amino)-1,3-benzothiazol-6-yl 2,6-dichlorobenzenesulfonate]
172 | O=C(NCCN1CCCCC1)Nc1nc2ccc(OS(=O)(=O)c3c(Cl)cccc3Cl)cc2s1 (as salt: benzenesulfonate) [Example 64, 2-{[(2-piperidin-1-ylethyl)carbamoyl]amino}-1,3-benzothiazol-6-yl 2,6-dichlorobenzenesulfonate]
195 | O=C(NCCCN1CCCC1=O)Nc1nc2ccc(OS(=O)(=O)c3c(Cl)cccc3Cl)cc2s1 (as salt: benzenesulfonate) [Example 65, 2-({[3-(2-oxopyrrolidin-1-yl)propyl]carbamoyl}amino)-1,3-benzothiazol-6-yl 2,6-dichlorobenzenesulfonate]
154.5 | CN(C)c1ccc(CNC(=O)Nc2nc3ccc(OS(=O)(=O)c4c(Cl)cccc4Cl)cc3s2)cc1 (as salt: benzenesulfonate) [Example 66, 2-({[4-(dimethylamino)benzyl]carbamoyl}amino)-1,3-benzothiazol-6-yl 2,6-dichlorobenzenesulfonate]
93 | O=C(NCCCN1CCN(Cc2c(F)cccc2Cl)CC1)Nc1nc2ccc(OS(=O)(=O)c3c(Cl)cccc3Cl)cc2s1 (as salt: benzenesulfonate) [Example 67, 2-[({3-[4-(2-chloro-6-fluorobenzyl)piperazin-1-yl]propyl}carbamoyl)amino]-1,3-benzothiazol-6-yl 2,6-dichlorobenzenesulfonate]
218 | O=C(NCCCN1CCN(Cc2ccccc2)CC1)Nc1nc2ccc(OS(=O)(=O)c3c(Cl)cccc3Cl)cc2s1 (as salt: benzenesulfonate) [Example 68, 2-({[3-(4-benzylpiperazin-1-yl)propyl]carbamoyl}amino)-1,3-benzothiazol-6-yl 2,6-dichlorobenzenesulfonate]
96.5 | CN1CCN(CCCNC(=O)Nc2nc3ccc(OS(=O)(=O)c4c(Cl)cccc4Cl)cc3s2)CC1 (as salt: benzenesulfonate) [Example 69, 2-({[3-(4-methylpiperazin-1-yl)propyl]carbamoyl}amino)-1,3-benzothiazol-6-yl 2,6-dichlorobenzenesulfonate]
177 | O=C(NCc1ccc(N2CCOCC2)cc1)Nc1nc2ccc(OS(=O)(=O)c3c(Cl)cccc3Cl)cc2s1 (as salt: benzenesulfonate) [Example 70, 2-{[(4-morpholin-4-ylbenzyl)carbamoyl]amino}-1,3-benzothiazol-6-yl 2,6-dichlorobenzenesulfonate]
163 | O=C(Nc1nc2ccc(OS(=O)(=O)c3c(Cl)cccc3Cl)cc2s1)NC1CCCCCC1 (as salt: benzenesulfonate) [Example 72, 2-[(cycloheptylcarbamoyl)amino]-1,3-benzothiazol-6-yl 2,6-dichlorobenzenesulfonate]
249 | O=C(Nc1nc2ccc(OS(=O)(=O)c3c(Cl)cccc3Cl)cc2s1)NC1CCCC1 (as salt: benzenesulfonate) [Example 73, 2-[(cyclopentylcarbamoyl)amino]-1,3-benzothiazol-6-yl 2,6-dichlorobenzenesulfonate]
169 | CC(C)NC(=O)Nc1nc2ccc(OS(=O)(=O)c3c(Cl)cccc3Cl)cc2s1 (as salt: benzenesulfonate) [Example 74, 2-[(isopropylcarbamoyl)amino]-1,3-benzothiazol-6-yl 2,6-dichlorobenzenesulfonate]
146 | O=C(NCCN1CCCCCC1)Nc1nc2ccc(OS(=O)(=O)c3c(Cl)cccc3Cl)cc2s1 (as salt: benzenesulfonate) [Example 76, 2-{[(2-azepan-1-ylethyl)carbamoyl]amino}-1,3-benzothiazol-6-yl 2,6-dichlorobenzenesulfonate]
227 | O=C(NCc1cccnc1)Nc1nc2ccc(OS(=O)(=O)c3c(Cl)cccc3Cl)cc2s1 (as salt: benzenesulfonate) [Example 78, 2-{[(pyridin-3-ylmethyl)carbamoyl]amino}-1,3-benzothiazol-6-yl 2,6-dichlorobenzenesulfonate]
240 | O=C(NCCC1CCNCC1)Nc1nc2ccc(OS(=O)(=O)c3c(Cl)cccc3Cl)cc2s1 (as salt: trifluoroacetic acid salt) [Example 35, 2-{[(2-Piperidin-4-ylethyl)carbamoyl]amino}-1,3-benzothiazol-6-yl 2,6-dichlorobenzenesulfonate]
168 | Cc1cccc(Cl)c1S(=O)(=O)Oc1ccc2[nH]c(NC(=O)NCCN3CCOCC3)nc2c1 [Example 11, 2-{[(2-Morpholin-4-ylethyl)carbamoyl]amino}-1H-benzimidazol-5-yl 2-chloro-6-methylbenzenesulfonate]
128 | Nc1cc(Cl)cc(Cl)c1S(=O)(=O)Oc1ccc2nc(NC(=O)NCCN3CCOCC3)sc2c1 [Example 39, 2-{[(2-Morpholin-4-ylethyl)carbamoyl]amino}-1,3-benzothiazol-6-yl 2-amino-4,6-dichlorobenzenesulfonate]
